In a melting point compilation (Tetko et al.; mined from patent text by program, amines drawn as free bases though some values may be those of a salt) one finds melting point data, which are given here for 64 molecules.

SMILES strings stand for the structures. A value given as a limit tells only on which side of the number the result lay.

A word on the melting point: it is the temperature of the solid-liquid transition.

On to `COc1ccccc1Oc1c(NS(=O)(=O)c2ccc(C)cn2)nc(-c2ccncc2)nc1OC`, for which the melting point lay in the range of 225 to 226 °C.

`O=C1CN(c2ccc(I)cc2)S(=O)(=O)N1` yielded a melting point of 191 to 193 °C.

For the molecule `Nc1cc(C(=O)O)nn1-c1c(Cl)cc(C(F)(F)F)cc1Cl`, the melting point stood at 213 °C.

`CC(=O)OS(=O)(=O)OC(C)=O` displayed a melting point of 228 °C.

Consider `Nc1cc(Oc2ccc(C(F)(F)F)cc2Cl)ccc1[N+](=O)[O-]`, for which the melting point lay in the range of 86 to 92 °C.

Molecule `CC(C)(C)c1cc(C(=O)NCCc2ccc([N+](=O)[O-])cc2)cc(C(C)(C)C)c1O` came in with a melting point of 204 to 206 °C.

As for `Cc1c(-c2ccccc2)sc2nc(Nc3ccccc3)[nH]c(=O)c12`, the melting point lay within 270 to 290 °C.

Regarding `O=CN1CCN(c2ncc3c(=O)c(C(=O)O)c[nH]c3n2)CC1`, the melting point is > 300 °C.

`CCC1C(=O)c2cc(OC)c(Cl)c(Cl)c2C1=O` (centres undefined) returned a melting point of 153 to 154 °C.

`O=C(Nc1c(F)cccc1F)c1ccc(-n2nc(C(F)(F)F)cc2C2CC2)nc1`: the melting point lay in the range of 192 to 194 °C.

Regarding `Cc1nc[nH]c1CSCCNC1=NC(=O)C(Cc2ccccc2)N1` (centres undefined), the melting point lay in the range of 104 to 107 °C.

For `O=C(CCCl)Nc1ccc2[nH]ncc2c1`, the melting point was 158 to 160 °C.

On to `CSc1ccc([N+](=O)[O-])cn1`, for which the melting point lay in the range of 111 to 112 °C.

`O=[N+]([O-])c1ccc2[nH]cc(CCCO)c2c1` displayed a melting point of 107 to 110 °C.

Regarding `OCc1ccc(I)cc1O`, the melting point fell in the range of 129 to 131 °C.

With `CC(C)(C)NC(=O)[C@@H]1CCCN1C(=O)[C@@H](O)[C@@H](C(=O)[C@H](CC(N)=O)NCc1cnc2ccccc2n1)C(N)c1ccccc1` (some centres undefined), the melting point lay within 116 to 119 °C.

`O=C1CCN(C(=O)N2CCN3C(=O)OC(c4ccccc4)(c4ccccc4)C3C2)c2ccccc21` (centres undefined) had a melting point of 202 to 205 °C.

The molecule `COc1cc(OCc2ccccn2)ccc1C=CC(=O)CC(C)=O` came in with a melting point of 81 to 82 °C.

The molecule `NCCc1c[nH]c2cc3c(cc12)C(=O)NCC3` registered a melting point of 82 to 86 °C.

With `Nc1cc(N2CC(c3cccs3)OC2=O)ccn1` (centres undefined), the melting point lay within 151 to 153 °C.

For `Cc1c(CCC(=O)O)c[nH]c1C=O`, the melting point is 128 to 134 °C.

As to `CC(C=NO)n1nnc2ccc(Oc3cc(F)c(C(F)(F)F)c(Cl)c3)cc21` (centres undefined), the melting point was 148 to 151 °C.

On to `COC=C(C(=O)OC)c1ccccc1CON=C(C)c1noc2ccccc12`, for which the melting point was 97 to 98 °C.

With `O=c1c2c[nH]c3c(c-2nn1-c1ccccc1)COCC3`, the melting point was 304 to 306 °C.

With `CCc1cccc(CC)c1NC(=O)Nc1sc2cc(OC)c(OC)cc2c1-c1ccccc1Cl`, the melting point was 229 to 231 °C.

On to `CCCCN1CC(=O)N2[C@@H](c3ccc(NC(C)=O)cc3)c3[nH]c4ccccc4c3C[C@@H]2C1=O` (relative stereo), for which the melting point was 246 °C.

`COc1cc(Cc2cnc(N)nc2N)cc(OC)c1C(C)(C)O`: the melting point was in the range of 183 to 185 °C.

Take `CC(NC(=O)c1cccnc1Oc1ccc(F)cc1)c1ccc(Cl)s1` (single isomer, unassigned; (+)): the melting point fell in the range of 78 to 80 °C.

As to `Cc1ccccc1NC(=O)Nc1ccc(NC(=O)C(CC(=O)Nc2ccc(C(=O)O)cc2)c2ccccc2)cc1` (centres undefined), the melting point amounted to 169 °C.

Molecule `Cc1ccccc1-c1cn2c(n1)-c1ccccc1Nc1ncccc1-2` registered a melting point of 215 to 217 °C.

In turn, `COc1ccc(N)c(C(=O)O)c1OC` had a melting point of 71 to 72 °C.

Consider `Cn1cc(Nc2nc(N3CCOCC3)nc(-n3c(C(F)F)nc4ccccc43)n2)cn1`, for which the melting point fell in the range of 225 to 226 °C.

Take `COC(=O)c1ccc(C#Cc2ccccc2F)o1`: the melting point lay within 106 to 108 °C.

On to `CCCc1nc2ccccc2c(=O)n1Cc1ccc(-c2ccccc2-c2nc(=O)o[nH]2)cc1`, for which the melting point lay within 251 to 253 °C.

The molecule `CC(=O)C(=Cc1cc(O)c(O)c(C(F)(F)F)c1)C(C)=O` registered a melting point of 198 to 205 °C.

`COCCSc1cc2c(N3CCc4ccc(Cl)cc43)ncnc2cc1Cl` came in with a melting point of 104 to 106 °C.

For `CC(C)(C(=O)c1ccc(S)cc1)N1CCOCC1`, the melting point fell in the range of 68 to 69 °C.

In the case of `CCCc1nc(Br)c(C(C)(O)C(=O)O)n1Cc1ccc(-c2ccccc2S(=O)(=O)NC(=O)NCc2ccccc2)cc1` (centres undefined), the melting point worked out at 153 °C.

In turn, `CC(C)(C)OC(=O)N[C@@H](Cc1c[nH]c2ccccc12)c1nc2c(C(F)(F)F)cccc2c(O)c1C(=O)Nc1nccs1` gave a melting point of 270 °C.

With `CS(=O)(=O)OC1CCc2c(sc(N)c2C(=O)c2ccc(Cl)cc2)C1` (centres undefined), the melting point was in the range of 73 to 75 °C.

Molecule `NC(=O)c1c(C(F)(F)F)ccc(Cl)c1Cl` gave a melting point of 118 to 120 °C.

Molecule `CCN(CC)C(=O)c1cc(C)ccc1-c1ccc(OC)cc1` displayed a melting point of 113 to 114 °C.

Turning to `Cc1ccccc1Cn1c(=O)c2c(N3CCN(C)CC3)cc(Cl)cc2n(Cc2ccccc2)c1=O`, the melting point was in the range of 92 to 95 °C.

Regarding `CCCC1NCCc2ccc(NC(=N)c3cccs3)cc21` (centres undefined), the melting point lay in the range of 127 to 128 °C.

Molecule `Cc1c(O)ccc2c1OCC(c1ccc(N)cc1)C2` (centres undefined) gave a melting point of 150 to 151 °C.

Take `Oc1nc2ccc3ncsc3c2nc1O`: the melting point was > 360 °C.

For `Cc1ccnc2c1N=C(S(C)(=O)=O)c1cccnc1N2C1CC1`, the melting point lay within 172 to 173 °C.

In the case of `C1CN(c2nc(NC3CC3)nc(C3CC3)n2)CCS1`, the melting point lay in the range of 133 to 134 °C.

On to `COC(C)(OC)C(C#N)=Cc1ccccc1`, for which the melting point is 45 to 46 °C.

As for `Nc1c(Br)cc(S(N)(=O)=O)cc1C(F)(F)F`, the melting point is 248 to 252 °C.

Take `N#Cc1ccccc1/C=C/C(=O)Nc1cc(Cl)cc(NC(=N)c2ccccc2)c1`: the melting point is 220 to 221 °C.

Consider `Cc1ccccc1-n1nc(-c2cccc(C(=O)O)c2)[nH]c1=O`, for which the melting point was > 310 °C.

In the case of `COc1cc2c(cc1-c1c(C)nn(C)c1C)-c1c(-c3cccs3)c3c(n1CC2)C(=O)N(C(C)C)CCN(C(=O)OC(C)(C)C)C3`, the melting point is 232 to 234 °C.

For the molecule `O=C1CC(N2Cc3ccc(F)cc3NC2=O)C(=O)N1` (centres undefined), the melting point is 283 to 285 °C.

In the case of `Cc1c(-c2ccccc2)c(N2CC[C@H](N(C)C)C2)c2oc(-c3ccccc3N)nc2c1C#N`, the melting point lay within 259 to 263 °C.

For `CCCCCOC(=O)c1cc(O)c2c(n1)c(C)cc1c(O)cc(C(=O)OCCCCC)nc12`, the melting point was in the range of 137 to 139 °C.

In turn, `[N-]=[N+]=NC(=O)c1ccc(-c2ccc(C(F)(F)F)cc2)s1` returned a melting point of 97 °C.

Molecule `Cc1c(Cl)cc(NC(=O)CCl)c(O)c1Cl` returned a melting point of 149 °C.

In the case of `Cc1cc(Cl)ccc1N1C(=O)c2ccc(Br)cc2C1=O`, the melting point lay in the range of 207 to 210 °C.

For `CC(C)c1cn(C)cc(-c2cccc(C(F)(F)F)c2)c1=O`, the melting point is 98.5 to 99.5 °C.

For the molecule `CCCOc1ccc(C=CC(=O)N2CCN(C)CC2)cc1-c1nc2c(C)cccc2c(=O)[nH]1`, the melting point fell in the range of 184 to 185 °C.

Take `N=C(N)Nc1nc(CSCCC(N)=O)cs1`: the melting point lay within 193 to 194 °C.

Consider `Cc1cc(C)c2c(c1C)OC(C)(C)C2c1ccccc1` (centres undefined), for which the melting point lay in the range of 86 to 87 °C.

Molecule `CCc1cn(C2CC(O)C(CNC(=O)C(CC)c3ccccc3)O2)c(=O)[nH]c1=O` (centres undefined) displayed a melting point of 235 to 236 °C.
